Laboratory results as given in ChEMBL document CHEMBL1151820, “Antagonists of the P2X(7) receptor. From lead identification to drug development” (J Med Chem, 2009).
Values belong to the compound of their own block, whether it stands above or below them.

Key:
Mus musculus = assay: In vivo receptor activity at P2X7 receptor in mouse model assessed as ATP-induced IL1-beta release; format: functional
[1] = Plasma clearance in rat; format: ADME, organism-based
P2X purinoceptor 7 [2] = biological target: T1, P2X purinoceptor 7 (Homo sapiens, UniProt Q99572); assay: Antagonist activity at P2X7 receptor in human THP1 cells assessed as inhibition of BzATP-induced ethidium uptake; format: functional, cell-based, THP-1
T1 sequence (Q99572 whole entry): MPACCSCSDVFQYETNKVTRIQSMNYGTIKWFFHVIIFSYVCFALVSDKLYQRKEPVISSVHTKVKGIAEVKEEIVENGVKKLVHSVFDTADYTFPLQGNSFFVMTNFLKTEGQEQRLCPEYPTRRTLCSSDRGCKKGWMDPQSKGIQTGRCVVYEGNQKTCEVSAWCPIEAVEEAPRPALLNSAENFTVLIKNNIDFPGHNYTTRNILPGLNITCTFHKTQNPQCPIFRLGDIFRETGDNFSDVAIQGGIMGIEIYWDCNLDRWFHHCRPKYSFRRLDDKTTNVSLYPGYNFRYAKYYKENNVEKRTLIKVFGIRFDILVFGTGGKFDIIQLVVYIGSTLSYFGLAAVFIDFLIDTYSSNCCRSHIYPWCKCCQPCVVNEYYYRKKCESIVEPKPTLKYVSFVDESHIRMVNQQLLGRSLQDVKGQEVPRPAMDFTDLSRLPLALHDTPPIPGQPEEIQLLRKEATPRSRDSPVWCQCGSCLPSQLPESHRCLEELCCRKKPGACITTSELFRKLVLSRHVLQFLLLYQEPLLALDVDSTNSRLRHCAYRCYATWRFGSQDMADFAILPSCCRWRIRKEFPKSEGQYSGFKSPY

[3] = Bioavailability in rat; format: ADME, organism-based; conditions: in vivo
[4] = Half life in rat; format: ADME, organism-based; conditions: in vivo
[5] = Volume of distribution at steady state in rat; format: ADME, organism-based; conditions: in vivo, read-out: Vdss
[6] = biological target: T2, P2X purinoceptor 7 (Homo sapiens) (UniProt Q99572); assay: Inhibition of human P2X7 receptor in human PBMC assessed as inhibition of BzATP-induced IL1-beta release at 0.3 uM
T2 sequence (whole entry): T1 sequence (Q99572 whole entry)

P2X purinoceptor 7 [7] = biological target: T1, P2X purinoceptor 7; assay: Antagonist activity at human P2X7 receptor expressed in HEK293 cells assessed as inhibition of BzATP-induced calcium influx; format: functional, cell-based
Rattus norvegicus [8] = assay: Analgesic activity in po dosed rat model of joint pain assessed as inhibition of FCA-induced weight bearing capacity administered twice daily for 5 days; format: functional; conditions: 120 h
Rattus norvegicus [9] = assay: Antiinflammatory activity in po dosed rat acute inflammatory pain model assessed as inhibition of FCA-induced weight bearing capacity; format: functional
[10] = Volume of distribution at steady state in iv dosed rat; format: ADME, organism-based; conditions: in vivo, read-out: Vdss
[11] = Plasma clearance in iv dosed rat; format: ADME, organism-based
[12] = Half life in iv dosed rat; format: ADME, organism-based; conditions: in vivo
P2X purinoceptor 7 [13] = biological target: T1, P2X purinoceptor 7; assay: Antagonist activity at P2X7 receptor in human lymphocytes assessed as inhibition of ATP-induced Ba2+ influx; format: functional, cell-based
P2X purinoceptor 7 [14] = biological target: T3, P2X purinoceptor 7 (Rattus norvegicus, UniProt Q64663); assay: Activity at rat P2X7 receptor expressed in HEK cells assessed as effect on BzATP-induced ethidium uptake; format: cell-based, HEK293
T3 sequence (Q64663 whole entry): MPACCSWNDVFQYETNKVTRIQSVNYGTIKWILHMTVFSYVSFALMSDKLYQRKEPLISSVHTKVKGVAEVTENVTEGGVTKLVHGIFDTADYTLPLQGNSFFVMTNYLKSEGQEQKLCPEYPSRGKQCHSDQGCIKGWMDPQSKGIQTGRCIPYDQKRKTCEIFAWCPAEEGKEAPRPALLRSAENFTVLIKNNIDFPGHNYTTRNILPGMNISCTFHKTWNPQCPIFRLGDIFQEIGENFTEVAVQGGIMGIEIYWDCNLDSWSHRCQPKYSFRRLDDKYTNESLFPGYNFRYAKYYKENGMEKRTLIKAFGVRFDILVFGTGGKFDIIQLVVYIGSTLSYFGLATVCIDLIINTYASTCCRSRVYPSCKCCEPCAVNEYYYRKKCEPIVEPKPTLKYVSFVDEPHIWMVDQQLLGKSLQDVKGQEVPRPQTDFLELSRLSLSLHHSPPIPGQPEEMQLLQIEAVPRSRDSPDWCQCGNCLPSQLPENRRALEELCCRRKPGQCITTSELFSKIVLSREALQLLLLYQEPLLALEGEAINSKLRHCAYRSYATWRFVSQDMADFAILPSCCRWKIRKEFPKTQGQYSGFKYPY

P2X purinoceptor 7 [15] = biological target: T1, P2X purinoceptor 7; assay: Antagonist activity at human P2X7 receptor expressed in HEK293 cells assessed as inhibition of ATP-induced ethidium uptake
[16] = Half life in Sprague-Dawley rat; format: ADME, organism-based; conditions: in vivo
[17] = Terminal phase volume of distribution in Sprague-Dawley rat; format: ADME, organism-based; conditions: in vivo, read-out: Vbeta
[18] = Plasma clearance in Sprague-Dawley rat; format: ADME, organism-based
[19] = Bioavailability in Sprague-Dawley rat; format: ADME, organism-based; conditions: in vivo
[20] = Metabolic stability in human liver microsomes assessed as half life; format: ADME, Microsome
[21] = Oral bioavailability in rat; format: ADME, organism-based; conditions: in vivo
[22] = Metabolic stability in rat hepatocytes assessed as intrinsic clearance assessed per million cells; format: ADME, cell-based, Liver, Hepatocyte
[23] = Protein binding in rat plasma; format: ADME, cell-free; conditions: read-out: PB (converted)
P2X purinoceptor 7 [24] = biological target: T1, P2X purinoceptor 7; assay: Antagonist activity at human P2X7 receptor expressed in human U373 cells assessed as inhibition of BzATP-induced Yo-Pro uptake; format: functional, cell-based, U-373MG ATCC
P2X purinoceptor 7 [25] = biological target: T1, P2X purinoceptor 7; assay: Inhibition of human P2X7 receptor assessed as inhibition of BzATP-induced IL1-beta release
[26] = Half life in ip dosed rat; format: ADME, organism-based; conditions: in vivo

Compound: O=C(CC12CC3CC(CC(C3)C1)C2)Nc1ncnc2c1CCN(S(=O)(=O)c1ccc(F)cc1F)C2
inhibition [6]: > 75%

Compound: CN1C(=O)CCC1C(=O)NCc1cccc(C(F)(F)F)c1Cl (stereo unspecified)
ED50 (Rattus norvegicus [8]): < 20 mg/kg | ED50 (Rattus norvegicus [9]): < 20 mg/kg

Compound: CC(C)(C)OC(=O)NCC(=O)N1CCc2c(ncnc2NCC(O)C23CC4CC(CC(C4)C2)C3)C1 (stereo unspecified)
inhibition [6]: > 75%

Compound: CN([C@@H](Cc1ccc(OS(=O)(=O)c2cccc3cnccc23)cc1)CN1CCN(c2ccccc2)CC1)S(=O)(=O)c1cccc2cnccc12
IC50 (P2X purinoceptor 7 [13]): 15.8 nM

Compound: Cc1n[nH]c(C)c1CC(=O)NCc1ccc(F)c(C(F)(F)F)c1
IC50 (P2X purinoceptor 7 [15]): < 3.16 µM | pIC50 (P2X purinoceptor 7 [7]; hek293): > 4.7

Compound: Cc1ccc2c(=O)n([C@H](C)CO)ccc2c1NC(=O)Cc1ccc(C(F)(F)F)c(F)c1
half-life [20]: 90 min | bioavailability [21]: 25%

Compound: COc1cccc(NC(=O)c2cccc(Cc3c(C)nn(CCO)c3-c3ccccc3)c2)c1
IC50 (P2X purinoceptor 7 [7]): ≤ 200 nM

Compound: O=C(NCC12CC3CC(CC(C3)C1)C2)c1ccccc1Cl
hepatocyte CLint [22]: > 100 µL/min/1e6 cells

Compound: O=C(NCC12CC3CC(CC(C3)C1)C2)c1cc(Cl)ccc1Cl
clearance [1]: 100 mL/min/kg | hepatocyte CLint [22]: > 100 µL/min/1e6 cells | half-life [4]: 30 min | Vd [5]: 3 L/kg

Compound: Cc1ccc(C(=O)N2CC3CNCC(C2)O3)cc1NC(=O)CC12CC3CC(CC(C3)C1)C2
fraction unbound [23]: 0.34

Compound: CN([C@@H](Cc1ccc(OS(=O)(=O)c2cccc3cnccc23)cc1)C(=O)N1CCN(c2ccc(F)cc2)CC1)S(=O)(=O)c1cccc2cnccc12
IC50 (P2X purinoceptor 7 [7]): 1.26 nM

Compound: CN1C(=O)CCC1C(=O)NCc1ccc(Cl)cc1Cl (stereo unspecified)
ED50 (Rattus norvegicus [8]): < 20 mg/kg | ED50 (Rattus norvegicus [9]): < 20 mg/kg

Compound: O=C(CC12CC3CC(CC(C3)C1)C2)Nc1ccccc1
clearance [1]: 47 mL/min/kg | hepatocyte CLint [22]: 5 µL/min/1e6 cells | Kb (P2X purinoceptor 7 [2]; read-out: pA2 (converted)): 39.8 nM | half-life [4]: 60 min | Vd [5]: 2 L/kg

Now from value to compound, other results behind:

clearance [1]: 9 mL/min/kg | IC50 (P2X purinoceptor 7 [2]): 316 nM | bioavailability [3]: 44% | half-life [4]: 180 min | Vd [5]: 0.3 L/kg
Compound: O=C(NCCc1ccccc1Cl)c1cc(-n2ncc(=O)[nH]c2=O)ccc1Cl
ED50 (Mus musculus): 20 mg/kg

IC50 (P2X purinoceptor 7 [7]): 15.8 nM
Compound: Cc1ccccc1N1CCN(C(=O)[C@H](Cc2ccc(OS(=O)(=O)c3cccc4cnccc34)cc2)N(C)S(=O)(=O)c2cccc3cnccc23)CC1

Vd [10]: 5.3 L/kg | clearance [11]: 68 mL/min/kg | half-life [12]: 54 min
Compound: Cc1ccccc1N=C(NC#N)N1CCN(C(=O)Nc2ccc(Cl)cc2)C(c2ccccc2)C1 (stereo unspecified)

IC50 (P2X purinoceptor 7 [7]): 31.6 nM
Compound: O=C(CNS(=O)(=O)c1cccc2cnccc12)N1CCN(Cc2ccccc2)CC1

IC50 (P2X purinoceptor 7 [14]): 25.1 nM
Compound: Clc1cccc(-n2ncnc2NCc2cccnc2N2CCCC2)c1Cl

half-life [16]: 240 min | Vd [17]: 21 L/kg | clearance [18]: 62 mL/min/kg | bioavailability [19]: 20%
Compound: COc1ccc(CC(=O)NC(N/C(=N/C#N)Nc2cccc3ncccc23)C(C)(C)C)cc1OC (stereo unspecified)

IC50 (P2X purinoceptor 7 [7]): 12.6 nM
Compound: CN([C@@H](Cc1ccc(OS(=O)(=O)c2cccc3cnccc23)cc1)C(=O)N1CCN(c2cccc(Cl)c2)CC1)S(=O)(=O)c1cccc2cnccc12

IC50 (P2X purinoceptor 7 [2]): 1.26 nM | half-life [20]: 60 min | bioavailability [21]: 25%
Compound: C[C@H](CO)n1ccc2c(NC(=O)Cc3ccc(Cl)c(C(F)(F)F)c3)cccc2c1=O

IC50 (P2X purinoceptor 7 [7]): 100 nM
Compound: CN([C@@H](Cc1ccc(OS(=O)(=O)c2cccc3cnccc23)cc1)C(=O)N1CCN(c2ccc(Cl)cc2)CC1)S(=O)(=O)c1cccc2cnccc12

IC50 (P2X purinoceptor 7 [2]): 6.31 nM | half-life [20]: 222 min | bioavailability [21]: > 75%
Compound: O=C(Cc1ccc(C(F)(F)F)c(F)c1)Nc1c(Cl)ccc2c(=O)n(CCO)ccc12

IC50 (P2X purinoceptor 7 [24]): 63.1 nM | IC50 (P2X purinoceptor 7 [25]): 1260 nM
Compound: Fc1cccc(CNC2=N[C@@H](c3cccc(F)c3)[C@@H](c3cccc(F)c3)N2)c1

half-life [26]: 60 min
Compound: Clc1cccc(-c2nnnn2Cc2cccnc2)c1Cl
